# Measurements published in patent publication US20160250285A1, “NEUROPROTECTIVE PEPTIDES” (priority 2013, published 2016).
# Where two headings read alike, the source gives them in different places. Peptide text beside a SMILES is read from it.
# How the values were obtained:
# [1] = tested on: primary cortical neuronal cultures; conditions: for neuroprotection (neuronal viability): peptide 15 min prior to and during glutamic acid exposure, viability 24 h, MTS; for neuroprotection, milder insult: FIG. 1i, comparison at 0.5 μM and 1 μM
# Description: Briefly, cortical tissue from E18-E19 Sprague-Dawley rats was dissociated in Dulbecco's modified Eagle medium (DMEM; Invitrogen, Australia) supplemented with 1.3 mM L-cysteine, 0.9 mM NaHCOa, 10 units/ml papain (Sigma, USA) and 50 units/ml DNase (Sigma) and washed in cold DMEM/10% horse serum. Neurons were resuspended in Neurobasal (Invitrogen) containing 2% B27 supplement (B27; Invitrogen). Before seeding, 96-well sized glass wells (6 mm diameter, ProTech, Australia) or 96-well plastic plates (ProSciTech, Australia) were coated with poly-D-lysine overnight ([…]: 50 mg/mL; 70-150 K, Sigma). […] Neurons were plated to obtain ≈10,000 viable neurons for each well on day in vitro 11-12. […] On day in vitro 4 one third of the culture medium was removed and replaced with fresh Neurobasal/2% B27 containing the mitotic inhibitor, cytosine arabinofuraNOside (1 mM final concentration; Sigma). On day in vitro 8 one half of the culture medium was replaced with Neurobasal/2% B27.
# To induce excitotoxicity, 50 μl of Neurobasal/2% B27 containing glutamic acid (200 μM) or kainic acid (400 μM) or NMDA (200 μM) was added to the culture wells (100 μM glutamic acid, 200 μM kainic acid and NMDA 100 μM final concentration). Cultures were incubated at 37° C. in the CO2 incubator for 5 minutes for glutamic acid, 45 minutes for kainic acid and 10 minutes for NMDA exposure, after which time the media was replaced with 100 μl of 50% Neurobasal/2% N2 supplement (Invitrogen) and 50% balanced salt solution (BSS; see below). Cultures were incubated for a further 24 hours at 37° C. in the CO2 incubator. The untreated controls with or without glutamic acid or kainic acid treatment received the same wash steps and media additions.
# Following this step, cultures were treated as described above. Untreated controls with or without glutamic acid exposure received the same wash steps and media additions. In addition, a post-glutamic acid exposure CPP treatment (5 μM) experiment was performed for the R9 peptide and the JNKI-1D-TAT control peptide.
# For pre-glutamic acid exposure experiments, neurons were exposed to peptide(s) for a 10 minute period, immediately before or 1, 2, 3, 4 or 5 hours prior to glutamic acid exposure. […] At the relevant peptide pre-treatment time, media was removed and replaced with 100 μl of Neurobasal/2%. […] Following 5-minute glutamic acid exposure, neuronal culture wells were treated as described above. For all experiments untreated controls with or without glutamic acid treatment underwent the same incubation steps and media additions.
# Heparin (for injection) was obtained from Pfizer (1000 IU/ml). Two different heparin experiments were performed: 1. Peptides were incubated with heparin (20 IU/ml) in Neurobasal/B27 for 5 minutes at room temperature, before addition to culture wells (50 μl) for 15 minutes at 37° C. in the CO2 incubator. Following the incubation period, media in wells was removed and replaced with 100 μl of Neurobasal/2% B27 containing glutamic acid (100 μM), and subsequently treated as described above; 2. Media in wells was replaced with Neurobasal/2% B27 containing heparin (50 μl; 40 IU/ml) and incubated for 5 minutes at 37° C. in the CO2 incubator. After the incubation period, peptides or glutamate receptor blockers (MK801/CNQX) in Neurobasal/2% B27 (50 μl) were added to the culture wells and cultures incubated for a further 10 minutes at 37° C. in the CO2 incubator. Following the incubation period, media in wells was removed and replaced with 100 μl of Neurobasal/2% B27 containing glutamic acid (100 μM), and subsequently treated as described above. For all experiments, non-heparin treated peptide controls with glutamic acid treatment underwent the same incubation steps and media additions.
# Twenty-four hours after insult, neuronal cultures were examined by light microscopy for qualitative assessment of neuronal cell viability.
# [2] = tested on: primary cortical neuronal cultures; experiment: In vitro ischemia / oxygen-glucose deprivation (OGD) model, neurons; format: cell-based, rat
# Description: Establishment of cortical cultures was as previously described (Meloni et al. 2001). Briefly, cortical tissue from E18-E19 Sprague-Dawley rats was dissociated in Dulbecco's modified Eagle medium (DMEM; Invitrogen, Australia) supplemented with 1.3 mM L-cysteine, 0.9 mM NaHCOa, 10 units/ml papain (Sigma, USA) and 50 units/ml DNase (Sigma) and washed in cold DMEM/10% horse serum. Neurons were resuspended in Neurobasal (Invitrogen) containing 2% B27 supplement (B27; Invitrogen). Before seeding, 96-well sized glass wells (6 mm diameter, ProTech, Australia) or 96-well plastic plates (ProSciTech, Australia) were coated with poly-D-lysine overnight (50 ml/well: 50 mg/mL; 70-150 K, Sigma). Excess poly-D-lysine solution was then removed and replaced with Neurobasal (containing 2% B27; 4% fetal bovine serum; 1% horse serum; 62.5 mM glutamate; 25 mM 2-mercaptoethanol; and 30 mg/mL streptomycin and 30 mg/mL penicillin). Neurons were plated to obtain ≈10,000 viable neurons for each well on day in vitro 11-12. Neuronal cultures were maintained in a CO2 incubator (5% CO2, 95% air balance, 98% humidity) at 37° C. On day in vitro 4 one third of the culture medium was removed and replaced with fresh Neurobasal/2% B27 containing the mitotic inhibitor, cytosine arabinofuraNOside (1 mM final concentration; Sigma). On day in vitro 8 one half of the culture medium was replaced with Neurobasal/2% B27. Cultures were used on day in vitro 11 or 12 after which time they routinely consist of >97% neurons and 1-3% astrocytes (Meloni et al. 2001).
# The in vitro ischemia model used for primary cortical neuronal cultures was performed as previously described (Meloni et at 2011) Briefly, culture media was removed from wells (glass 96-well plate format) and washed with 315 μl of glucose free balanced salt solution (BSS; mM: 116 NaCl, 5.4 KCl, 1.8 CaCl2, 0.8 MgSO4, 1 NaH2PO4; pH 6.9) before the addition of 60 μl BSS containing cell penetrating or control peptides (see Table 1). A non-peptide positive control consisting of the glutamate receptor blockers (5 μM MK801/5 μM 6-cyano-7-nitroquinoxaline: MK801/CNQX) was also included. In vitro ischemia was initiated by placing wells in an anaerobic incubator (Don Whitely Scientific, England; atmosphere of 5% CO2, 10% H2 and 85% argon, 98% humidity) at 37° C. for 55 minutes. Upon removal from the anaerobic incubator, 60 μl of Neurobasal/2% N2 supplement was added to the wells and cultures incubated for a further 24 hours at 37° C. in the CO2 incubator. Control cultures received the same BSS wash procedures and media additions as ischemic treated cultures before incubation at 37° C. in the CO2 incubator.
# Control cultures underwent the same BSS wash procedures and media additions as OGD treated cultures.
# Twenty-four hours after insult, neuronal cultures were examined by light microscopy for qualitative assessment of neuronal cell viability. Neuronal viability was quantitatively measured by 3-(4,5,dimethyliazol-2-yl)-5-(3-carboxymethoxy-phenyl)-2-(4-sulfophenyl)-2H-tetrazolium salt (MTS) assay (Promega, Australia). The MTS assay measures the cellular conversion of the tetrazolium salt to a water-soluble brown formazan salt, which is detected spectrophotometrically at 490 nm. MTS absorbance data were converted to reflect proportional cell viability relative to both the untreated and treated controls, with the untreated control taken as 100% viability, and presented as mean±SEM. […] Viability data was analysed by ANOVA, followed by post-hoc Fischer's PLSD test, with P<0.05 values considered statistically significant. Four- to six wells were used in all assays.
# [3] = tested on: intracellular calcium influx in neuronal cultures; experiment: Intracellular calcium influx (Fura-2 AM) after glutamic acid; format: cell-based, rat; conditions: peptide 5 μM for 10 min, removed before 100 μM glutamic acid (FIG. 44)
# Description: Fura-2 AM was used for intracellular calcium assessment. Representative fluorescent Fura-2 AM tracers; fluorescence intensity (FI) of neuronal cultures 30 sec before and following addition (arrow) of glutamic acid (100 μM final concentration). Peptides or glutamate receptor blockers were added to neuronal cultures for 10 min and removed (time 0) before glutamic acid. Values are mean±SE; n=3. Peptide concentration was 5 μM.
# Briefly, cortical tissue from E18-E19 Sprague-Dawley rats was dissociated in Dulbecco's modified Eagle medium (DMEM; Invitrogen, Australia) supplemented with 1.3 mM L-cysteine, 0.9 mM NaHCOa, 10 units/ml papain (Sigma, USA) and 50 units/ml DNase (Sigma) and washed in cold DMEM/10% horse serum. Neurons were resuspended in Neurobasal (Invitrogen) containing 2% B27 supplement (B27; Invitrogen). Before seeding, 96-well sized glass wells (6 mm diameter, ProTech, Australia) or 96-well plastic plates (ProSciTech, Australia) were coated with poly-D-lysine overnight (50 ml/well: 50 mg/mL; 70-150 K, Sigma). Excess poly-D-lysine solution was then removed and replaced with Neurobasal (containing 2% B27; 4% fetal bovine serum; 1% horse serum; 62.5 mM glutamate; 25 mM 2-mercaptoethanol; and 30 mg/mL streptomycin and 30 mg/mL penicillin). Neurons were plated to obtain ≈10,000 viable neurons for each well on day in vitro 11-12. Neuronal cultures were maintained in a CO2 incubator (5% CO2, 95% air balance, 98% humidity) at 37° C. On day in vitro 4 one third of the culture medium was removed and replaced with fresh Neurobasal/2% B27 containing the mitotic inhibitor, cytosine arabinofuraNOside (1 mM final concentration; Sigma). On day in vitro 8 one half of the culture medium was replaced with Neurobasal/2% B27. Cultures were used on day in vitro 11 or 12 after which time they routinely consist of >97% neurons and 1-3% astrocytes (Meloni et al. 2001).
molecule,measurement,setting,value
"H-YARAAARQARA-OH [PTD-4, reference compound]",neuroprotection (neuronal viability),[1],little to no neuroprotective properties
same,neuroprotection (neuronal viability),[1]; listed as PTA4,largely ineffective
PRRRRSSSRPVRRRRRPRVSRRRRRGGRRRR [Ptm3],neuroprotection (neuronal viability),[1],neuroprotective
PRRRRSSRRPVRRRRRPRVSRRRRRGGRRRR [Ptm2],neuroprotection when added for 15 minutes after OGD,"[2]; FIGS. 31, 20, 22, 1 μM and 5 μM in FIG. 31",neuroprotective
same,neuroprotection in the OGD model (overall statement),[2]; discussion summary,neuroprotective
same,neuroprotection (neuronal viability),[1],neuroprotective
"GRKKRRQRRRG [TAT, the TAT peptide, reference compound]",neuroprotection when peptide washed-out prior to glutamic acid exposure,"[1]; 15 min incubation, wash-out before insult (FIG. 1c)",loss of efficacy
same,calcium influx after glutamic acid,[3],to varying degrees reduced calcium influx
"N=C(N)NCCC[C@H](NC(=O)[C@H](CCCNC(=N)N)NC(=O)[C@@H](N)CCCNC(=N)N)C(=O)O [Peptide R3, H-RRR-OH] (H-Arg-Arg-Arg-OH)",IC50,[1],> 5 µM
same,"neuroprotection, milder insult",[1],ineffective
same,neuroprotection (neuronal viability),[1],no to little neuroprotection
Ac-PLFAE-RRRRRRRRR-NH2 (Ac-PLFAERRRRRRRRR-NH2) [Cal/R9],neuroprotection (neuronal viability),[1],moderate to high level neuroprotection
"H-EEEEEEEEE-RRRRRRRRR-OH (H-EEEEEEEEERRRRRRRRR-OH) [E9/R9, reference compound]",neuroprotection (neuronal viability),[1]; listed as E91R9,no protection
"H-KETWWETWWTEWSQPKKKRKV-NH2 [Pep-1, reference compound]",IC50,[2]; 24 h,> 15 µM
same,lower concentrations at which neuroprotective,[2]; FIG. 3a,1 to 5 µM
same,neuroprotection,[2]; peptide present during in vitro ischemia and at 50% dose after (FIG. 3a),neuroprotective following in vitro ischemia at lower concentrations
H-RRERRRRSCAGCSRARGSCRSCRR-NH2 (cysteine pairing not given here) [NCXBP3],neuroprotection (neuronal viability),[1],high levels of protection
"N=C(N)NCCC[C@H](NC(=O)[C@H](CCCNC(=N)N)NC(=O)[C@H](CCCNC(=N)N)NC(=O)[C@H](CCCNC(=N)N)NC(=O)[C@H](CCCNC(=N)N)NC(=O)[C@@H](N)CCCNC(=N)N)C(=O)O [Peptide R6, H-RRRRRR-OH]",IC50,[1],> 5 µM
same,"neuroprotection, milder insult",[1],ineffective
"H-AAVALLPAVLLALLAP-PPRPKRPTTLNLFPQVPRSQDT-OH (H-AAVALLPAVLLALLAPPPRPKRPTTLNLFPQVPRSQDT-OH) [kFGF-JNKI-1, reference compound]",neuroprotection (neuronal viability),[1],not neuroprotective
"N=C(N)NCCC[C@H](N)C(=O)O [Peptide R1, H-R-OH]","neuroprotection, milder insult",[1],ineffective
same,neuroprotection (neuronal viability),[1],no to little neuroprotection
same,IC50,"[1]; read-out: IC50: Glutamic acid model, Table 4, polyarginine peptides, from dose response graph FIG. 1e",> 5 µM
"H-GRKKRRQRRR-PPRPKRPTTLNLFPQVPRSQDT-OH (H-GRKKRRQRRRPPRPKRPTTLNLFPQVPRSQDT-OH) [TAT-JNKI-1, reference compound]",neuroprotection (neuronal viability),[1],neuroprotective
same,calcium influx after glutamic acid,[3],to varying degrees reduced calcium influx
H-RRRRRRRRRPGRVVGGRRRRRRRRR-OH [R9/tPA/R9],IC50,[1],0.29 µM
same,order of potency,"[1]; dose response studies, glutamate model",potency between R12 and R18
same,neuroprotection (neuronal viability),[1],highly effective
"H-AAVALLPAVLLALLAP-OH [kFGF, reference compound]",neuroprotection (neuronal viability),[1],ineffective
H-RRRRRRRR-OH [Peptide R8],concentration at which (significant) neuroprotection displayed,"[1]; dose response studies FIGS. 6, 7, 8",5 µM
same,neuroprotection (neuronal viability),[1],moderate to high level neuroprotection
